The values that follow come from PubChem BioAssay (NCI).

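The compound was tested at five concentrations on cells cultured in 96-well plates, with a 48-hour exposure period. GI50 is the concentration that inhibits growth by half. The concentration for full growth arrest is given as TGI.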 Where a SMILES comes first, the peptide text is derived from it. [ ]: non-standard residue; d: D form.

Holding throughout (assay): inhibition of tumour cell growth, NCI panel, 48 h
Assay [1] deals with 786-0 renal.
Assay [2] concerns HCT-116 colon.
Assay [3] concerns HL-60(TB) leukemia.
Assay [4] concerns HOP-62 NSCLC.
The subject of assay [5] is IGROV1 ovarian.
Assay [6] has as its system M14 melanoma.
In assay [7] the test system is NCI-H522 lung.
In assay [8] the test system is OVCAR-3 ovarian.
The test system of assay [9] is SNB-19 CNS.
The subject of assay [10] is K-562 leukemia.

On to `O/N=C1\C(=C\c2ccc3c(c2)OCCO3)CCCC1C(NO)c1ccc2c(c1)OCCO2` (stereo unspecified), for which the TGI in assay [1] was more than 100 µM; in assay [2], 40.4 µM; in [3] it was 71 µM; in assay [4], 52.3 µM; in assay [5], more than 100 µM; in assay [6], 34.4 µM. Further, the results for the TGI in assay [7], in assay [8] and in assay [9] were 29.6 µM, 39.6 µM and more than 100 µM, respectively.

With `C=CCCC(=O)CC(=O)OCc1ccccc1`, the TGI in assay [1], in assay [2], in assay [3], in assay [4], in assay [5] and in assay [10] was more than 100 µM throughout. The TGI in [6], in assay [8] and in [9] was more than 100 µM throughout.

Turning to `CCOc1ccccc1N=Cc1c2ccccc2cc2ccccc12`, the TGI in [1] is 41.1 µM; in assay [2] it was 41.5 µM; in assay [3], 53 µM; in assay [4], more than 84.3 µM; in assay [5], 49.9 µM; in [10] it was more than 67.7 µM. Besides, the TGI in assay [6] is 41.1 µM; in assay [8] it was more than 67.6 µM; in [9] it was more than 88.4 µM.

For `Cc1nc(-n2nc(-c3ccccc3)cc2-c2ccccc2)sc1C(=O)/C=C/c1cccc([N+](=O)[O-])c1`, the TGI in assay [1] stood at 25.3 µM; in assay [3] it was 31.3 µM; in assay [4] it was 38.1 µM; in [5], 92.2 µM; in assay [10], 28.3 µM; in [7] it was 30.8 µM. The TGI turned out to be 15.4 µM in assay [8] and 23.5 µM in assay [9].

`Cc1ccc(C)c(NC(=O)C(=O)Nn2c(=S)[nH]c3ccccc3c2=O)c1`: the TGI in assay [1], in [2], in assay [3], in [4], in [5] and in assay [10] was more than 100 µM each time. For the same compound, the TGI in assay [6], in [7] and in [9] was more than 100 µM each time.

On to `CC(=O)/C(=C/N1CCN(C(=O)c2ccco2)C1=S)C(=O)c1ccccc1`, for which the GI50 in assay [1] was 11.2 µM; in [2] it was 6.39 µM; in assay [3] it was 8.19 µM; in [4], 11.7 µM; in assay [5] it was 10.9 µM; in assay [10], 6.66 µM. The GI50 in assay [6] is 6.32 µM; in assay [8], 17.2 µM; in [9] it was 16.3 µM. Besides, the TGI in assay [1] turned out to be 25.1 µM; in assay [2], 16.6 µM; in assay [3] it was 19.3 µM; in assay [4] it was 27.7 µM; in assay [5], 28.4 µM; in assay [10] it was 41.6 µM. The TGI in assay [6] is 13.1 µM; in assay [8] it was more than 50 µM; in [9], more than 50 µM.

Turning to `O=C(N/C(=C\c1ccc(F)cc1)c1nc2ccccc2[nH]1)c1ccccc1`, the TGI in [1], in assay [2], in assay [5], in [10], in assay [6] and in assay [7] was more than 100 µM in each case. Moreover, the TGI in assay [8] and in assay [9] was more than 100 µM each time.

In the case of `COC1CC(n2cc(F)c(N)nc2=O)OC1CO` (stereo unspecified), the TGI in [1], in assay [3], in assay [4], in assay [10], in assay [6] and in assay [7] was more than 100 µM in each case. The TGI in assay [8] and in [9] was more than 100 µM throughout.

In the case of `CC1=C2C3OC(=O)C(C)C3C(O)C[C@@]2(C)C(=O)CC1` (stereo partly specified), the TGI in assay [1], in [2], in assay [3], in [4], in assay [5] and in assay [6] was more than 100 µM in each case. Also, the TGI in assay [7], in assay [8] and in assay [9] was more than 100 µM throughout.

Consider `N#Cc1cc2c(cc1Cl)SC(=Nc1ccccc1)N(S(=O)(=O)c1ccc(Br)s1)S2(=O)=O`, for which the GI50 in [1] was 16.7 µM; in [2], 15.9 µM; in assay [4], 19.1 µM; in assay [5], 12.8 µM; in assay [10], 14.5 µM; in assay [6], 14.8 µM. The GI50 is 15.5 µM in assay [7] and 15.9 µM in assay [8]. The TGI stood at 32.4 µM in assay [1]; 33.7 µM in assay [2]; 35.9 µM in [4]; 31.1 µM in assay [5]; 43.8 µM in assay [10]; 30.6 µM in assay [6]. Also, the TGI in assay [7] was determined as 39.1 µM; in assay [8] it was 32 µM.

`CC1OC(=O)N2CCC=CC12` (stereo unspecified): the TGI in [1], in [2], in assay [5], in assay [10], in assay [7] and in [8] was more than 100 µM throughout. In assay [9], this compound showed a TGI of more than 100 µM.

As for `C#C[C@@H](CCCC)OC(=O)N[C@H](C)c1ccccc1`, the TGI in [1] is more than 100 µM; in assay [2] it was more than 100 µM; in assay [3], 42 µM; in [4], more than 100 µM; in assay [5], 52.6 µM; in assay [10] it was more than 100 µM. In addition, the TGI in assay [6], in assay [8] and in assay [9] was more than 100 µM throughout.

On to `N#CNC1=NCCC(=O)N1CCc1c[nH]c2ccccc12`, for which the TGI in [1], in assay [2], in assay [3], in [4], in assay [5] and in [10] was more than 100 µM each time. Also, the TGI in assay [6], in [8] and in assay [9] was more than 100 µM throughout.

As for `CN(C)C(=S)/N=c1\ss/c(=N\S(=O)(=O)c2ccccc2)n1C`, the TGI in assay [1], in assay [2], in [3], in [4], in [5] and in assay [10] was more than 100 µM each time. For the same compound, the TGI in assay [6], in assay [7] and in assay [9] was more than 100 µM in each case.

Regarding `CCCCCCCCc1cc(O)ccc1O`, the GI50 was 17.5 µM in assay [1]; 14.7 µM in [2]; 3.53 µM in [3]; 25.5 µM in assay [4]; 17.7 µM in assay [5]; 14.9 µM in assay [10]. Besides, the GI50 in assay [7] was 5.65 µM; in assay [8], 15.4 µM; in assay [9], 18.5 µM. Besides, the TGI was determined as 34.5 µM in assay [1]; 27.9 µM in assay [2]; 16.2 µM in [3]; 60.6 µM in assay [4]; 43.8 µM in [5]; 67.5 µM in assay [10]. Further, the figures for the TGI in [7], in [8] and in assay [9] were 25.3 µM, 30 µM and 39.9 µM, respectively.

As to `CC(=O)OC1=C(CC(C)(C)C)C(=O)c2ccccc2C1=O`, the TGI was more than 100 µM in assay [1]; 75.5 µM in [2]; 44.5 µM in assay [3]; more than 100 µM in [4]; more than 100 µM in assay [5]; 39.9 µM in assay [10]. The TGI in [6] and in assay [9] was more than 100 µM throughout.

For the compound `C/C(=N\Nc1n[nH]c(=S)n1N)c1c(O)cc(C)oc1=O`, the TGI in assay [1], in [2], in assay [3], in assay [4], in assay [10] and in assay [6] was more than 100 µM throughout. Besides, the TGI in assay [7] and in assay [9] was more than 100 µM in each case.

On to `CCOC(=O)C(=O)Nc1nc2ccc(C)cc2s1`, for which the TGI in [1], in assay [2], in assay [4], in assay [5], in assay [10] and in assay [6] was more than 100 µM in each case. Also, the TGI in assay [7], in [8] and in assay [9] was more than 100 µM throughout.

Turning to `O=C(CCc1cc(-c2ccc(F)cc2)n[nH]1)N(Cc1ccccc1)Cc1ccccc1`, the TGI in assay [1], in assay [2], in assay [4], in assay [5], in [10] and in [6] was more than 100 µM throughout. The TGI in assay [7], in assay [8] and in assay [9] was more than 100 µM each time.

For `CCOc1ccccc1NC(=O)C1=C(C)NC(C)=C(C(=O)Nc2ccccc2OCC)C1c1cccc([N+](=O)[O-])c1`, the TGI in assay [1], in [3], in [4], in [5], in assay [10] and in assay [6] was more than 100 µM each time. For the same compound, the TGI in assay [7], in [8] and in assay [9] was more than 100 µM throughout.

Consider `CSCC[C@H](NC(=O)[C@@H](N)CC(N)=O)C(=O)N[C@@H](Cc1c[nH]c2ccccc12)C(=O)N[C@@H](CCC(N)=O)C(=O)N[C@@H](CCC(=O)O)C(=O)N[C@H](C(=O)NCC(=O)N[C@@H](CCCCN)C(=O)N[C@H](C)C(=O)O)C(C)C` (H-NMWQEVGK[dA]-OH), for which the TGI in assay [1], in assay [2], in assay [3], in assay [4], in [5] and in assay [10] was more than 100 µM in each case. Further, the TGI in assay [6], in assay [8] and in assay [9] was more than 100 µM throughout.

On to `CN(C)Cc1cc(C(C)(C)C)cc(CN(C)C)c1O`, for which the TGI in [1], in [2], in assay [4], in assay [5], in assay [10] and in [6] was more than 100 µM each time. Also, the TGI in assay [7], in [8] and in [9] was more than 100 µM throughout.

With `COc1ccc(/C=C2/CSC/C(=C/c3ccc(OC)c(OC)c3)C2=O)cc1OC`, the TGI was 3.56 µM in assay [1]; 2.28 µM in assay [2]; more than 100 µM in assay [3]; 8.72 µM in [4]; 5.99 µM in assay [5]; 10.5 µM in [6]. Besides, the TGI in assay [7] came to 5.83 µM; in assay [8], 5.15 µM; in assay [9], 16.2 µM.

Consider `CCN1CCC(O)(/C=C/c2ccccc2)C(C(=O)/C=C/c2ccccc2)C1` (stereo unspecified), for which the TGI in assay [1] amounted to 3.32 µM; in assay [2], 3.08 µM; in assay [3] it was 4.08 µM; in assay [4], 28.4 µM; in assay [5], 3.78 µM; in assay [6] it was 4.13 µM. For the same compound, the results for the TGI in assay [7], in [8] and in assay [9] were 3.36 µM, 8.9 µM and 22.3 µM, respectively.

Regarding `C[C@H]1CC[C@@H]2[C@@H](C)[C@H]3[C@H](C[C@H]4[C@@H]5CC=C6C[C@@H](O)CC[C@]6(C)[C@H]5CC[C@]34C)N2C1`, the TGI was more than 100 µM in [1]; more than 100 µM in [2]; 54 µM in assay [3]; more than 100 µM in assay [4]; more than 100 µM in assay [5]; more than 100 µM in [6]. Further, the TGI in [7], in assay [8] and in [9] was more than 100 µM in each case.

Take `N/C(CC(=O)NOC(=O)c1ccccc1)=N/OC(=O)c1ccccc1`: the TGI in assay [1] is more than 100 µM; in assay [2], more than 100 µM; in assay [3] it was more than 100 µM; in assay [4], more than 100 µM; in assay [5] it was 31.7 µM; in [10], 71.7 µM. In addition, the TGI in assay [6], in [8] and in assay [9] was more than 100 µM in each case.

Take `CC/C(C)=C1\CCC(CN(C)C)C1=O` (stereo unspecified): the TGI in [1] is 29.3 µM; in [2], 31.7 µM; in [3], 43.7 µM; in [4] it was more than 100 µM; in [5], 36.8 µM; in assay [10] it was 79.5 µM. The TGI in assay [6] was 33.6 µM; in assay [8], 33.2 µM; in [9] it was more than 100 µM.
